Source: publication PMC11489206, “Transport of perfluoroalkyl substances across human induced pluripotent stem cell-derived intestinal epithelial cells in comparison with primary human intestinal epithelial cells and Caco-2 cells” (Archives of Toxicology, 2024)

How the values were obtained:
[1] = Transport study across EpiIntestinal microtissues; settings: human
Protocol: The human EpiIntestinal small intestinal microtissues, consisting of epithelial cells and an underlying lamina propria containing intestinal fibroblasts, were obtained from MatTek Life Sciences (Ashland, USA). Cell culture inserts (8.8 mm ID) were placed in 12-well plates and cells were maintained in 100 µl maintenance medium (MatTek Life Sciences) in the apical compartment and 5 ml maintenance medium in the basolateral compartment upon arrival. The transport studies were performed 1 day after arrival.
(§1) Transport studies were performed in Caco-2 cells, hiPSC-derived IECs and EpiIntestinal microtissues. To that end, Caco-2 cell layers were differentiated for 21 days and hiPSCs were differentiated into IEC layers for 26 days, as described above. EpiIntestinal microtissues were subjected to transport studies 1 day after arrival. […] For all models, PFAS transport was assessed in apical to basolateral, and basolateral to apical direction using HBSS containing a mixture of PFASs containing 1 µM of each PFAS. See Supplementary Data for a detailed description of the method used for the transport studies of the model compounds and PFASs.
(§2) Prior to exposure to the transport study compounds, the cells were washed with transport medium (HBSS; Sigma). […] 100 µL aliquots were collected from the basolateral compartment and replaced with the same volume HBSS at settled time points (0, 15, 30 and 60 min). For basolateral to apical transport in the EpiIntestinal microtissues, 0.2 mL HBSS was added to the apical compartment and 0.5 mL HBSS containing a mixture of PFASs containing 1 µM of each PFAS, was added to the basolateral compartment. 100 µL aliquots were collected from the apical compartment and replaced with the same volume of HBSS at settled time points (0, 15, 30 and 60 min). For apical to basolateral transport across the Caco-2 cell layers and hiPSC-derived IEC layers, 1.2 mL HBSS was added to the basolateral compartment and 0.4 mL HBSS containing either model compounds (10 µM) or a mixture of PFASs containing 1 µM of each PFAS, was added to the apical compartment. 100 µL aliquots were collected from the basolateral compartment and replaced with the same volume of HBSS at settled time points (0, 7.5, 15, 30 and 60 min for the model compounds with both models and the PFASs with the hiPSC-derived IEC layers and 0, 15, 30 and 60 min for PFASs with the Caco-2 cell layers). For basolateral to apical transport, 0.4 mL HBSS was added to the apical compartment and 1.2 mL HBSS containing 10 µM of the model compounds or a mixture of PFASs containing 1 µM of each PFAS, was added to the basolateral compartment. 100 µL aliquots were collected from the apical compartment and replaced with the same volume of HBSS at settled time points (0, 7.5, 15, 30 and 60 min for the model compounds with both models and the PFASs with the hiPSC-derived IEC layers and 0, 15, 30 and 60 min for PFASs with the Caco-2 cell layers). After 60 minutes, all liquid was collected from the apical and basolateral compartment and the cells were lysed in 200 µL RIPA buffer (Thermo Fisher Scientific), and chemicals were quantified in the different compartments (apical, basolateral and cells) in order to calculate the mass balance.
(§3) The apparent permeability coefficient (Papp, cm/s) was calculated using the following equation: […]
where A is the surface area (cm^2), dQ is the amount of the compound transported (nmol) over the respective time interval dt (s) and C0 is the initial concentration in the donor compartment (µM).

[2] = Transport study across Caco-2 cell layers; settings: human, Caco-2
Protocol: (§4) Human colorectal adenocarcinoma cells (Caco-2, HTB-37) were obtained from American Type Culture Collection (ATCC, Manassas, VA). Cells were cultured in a humidified incubator (37°C, 5% CO2) in Dulbecco’s modified Eagle’s medium (DMEM) supplemented with 10% heat-inactivated fetal bovine serum (Gibco, Thermo Fisher Scientific, Waltham, MA), 1% non-essential amino acids (Gibco) and 1% penicillin/streptomycin (Sigma). For experiments, Caco-2 cells below passage number 50 were used within 10 passages. They were harvested at 80% confluence using Trypsin/EDTA (0.25%/0.05%; PAN Biotech, Aidenbach, Germany) and seeded at a density of 4 × 10^5 cells/cm^2 into inserts with a polycarbonate membrane (0.4 µm pore, Corning, New York, NY). After 21 days of differentiation (using 500 µl cell culture medium in the apical and 1500 µl in the basolateral compartment), monolayer integrity was determined by measuring transepithelial electrical resistance (TEER) with a Millicell ERS Volt-Ohm meter (Millipore, Bedford, MA).
as §1, §2, §3

[3] = tested on: Caco-2 cell layers; assay: Transport study across Caco-2 cell layers; settings: Caco-2 model; PFAS mixture 1 µM each; not detected in the basolateral compartment
Protocol: as §4, §1, §2, §3

[4] = Transport study across hiPSC-derived IEC layers; settings: human
Protocol: For differentiation into IECs, definitive endoderm cells were subsequently differentiated into intestinal stem cells by changing medium into DMEM/F12 containing 2% fetal bovine serum, 1% GlutaMAX (Gibco) and 250 ng/ml FGF2 (R&D Systems). After 4 days, cells were dissociated using Accutase and seeded onto polyester Transwell inserts (0.4 µm, Corning) coated with Growth Factor Reduced Matrigel #356231. Cells were cultured for 7 days in intestinal differentiation medium (DMEM/F-12 containing 2% fetal bovine serum, 1% non-essential amino acids (Gibco), 1 × B27 (Gibco), 1 × N2 (Gibco), 1% penicillin/streptomycin (Gibco) and 2 mM L-glutamine (Gibco)) supplemented with 20 ng/ml EGF (R&D Systems) and 30 µM Forskolin (Sigma). ROCK inhibitor, y-27632 (final concentration 10 µM; Stem Cell Technologies), was added during the initial 24 h after seeding to reduce cell death. The cells were subsequently cultured for 12 days in intestinal differentiation medium supplemented with 20 ng/ml EGF, 30 µM Forskolin, 5 µM 5-aza-2′-deoxycytidine (Sigma), 20 µM PD98059 (Stem Cell Technologies) and 0.5 µM A-83–01 (Sigma). The medium was refreshed every 2–3 days. Barrier integrity was determined by measuring apical to basolateral translocation of Lucifer yellow (see Supplementary Data for a detailed description).
as §1
as §2, with “layers).” for “layers). After 60 minutes, all liquid was collected from the apical and basolateral compartment and the cells were lysed in 200 µL RIPA buffer (Thermo Fisher Scientific), and chemicals were quantified in the different compartments (apical, basolateral and cells) in order to calculate the mass balance.”

[5] = tested on: hiPSC-derived IEC layers; assay: Barrier integrity: apical to basolateral translocation of lucifer yellow; assay type: in vitro ADME, human; settings: terminally differentiated IECs; 500 µg/ml apical, 3 hours; data not shown
Protocol: The medium was refreshed every 2–3 days.
To determine barrier integrity of the hiPSC-derived IEC layers, apical to basolateral translocation of lucifer yellow was measured. 500 µg/ml Lucifer yellow, in differentiation medium, containing EGF, Forskolin, 5-aza-2′-deoxycytidine, PD98059, A-83-01, was added to the apical compartment (400 µl/insert) and incubated at 37 °C for 3 hours. 50 µl medium was collected from the basolateral compartment at 30 min intervals. The fluorescence intensity was measured at 485 nm excitation and 530 nm emission wavelength using a microplate reader (Synergy HT, BioTek, Winooski, VT).

O=C(O)C(F)(OC(F)(F)C(F)(F)C(F)(F)F)C(F)(F)F (stereo not drawn) [HFPO-DA, hexafluoropropylene oxide dimer acid]
Papp A→B at 60 min, 1 µM [1]: 1.16 ± 0.19 ×10⁻⁶ cm/s | Papp B→A at 60 min, 1 µM [1]: 1.04 ± 0.09 ×10⁻⁶ cm/s | efflux ratio at 60 min, 1 µM [1]: 0.9 | Papp B→A at 60 min, 1 µM [2]: 1.23 ± 0.25 ×10⁻⁶ cm/s | Transport (in words) [3]: no transport | Papp A→B at 60 min, 1 µM [4]: 3.09 ± 0.09 ×10⁻⁶ cm/s | Papp B→A at 60 min, 1 µM [4]: 4.49 ± 0.27 ×10⁻⁶ cm/s | efflux ratio at 60 min, 1 µM [4]: 1.45

lucifer yellow
Apical to basolateral transport of lucifer yellow [5]: no quantifiable
